This is an account of results in patent EP0215956A1, “COMPOSITION FOR TREATING SKIN DISEASE” (priority 1985, dated 1986).

Molecules are shown by their SMILES.

For data set [1], the system named is psoriasis vulgaris. The experiment in a line: Peroral administration to patients with psoriasis vulgaris (case reports). It is filed as in vivo, human. The settings on record: for psoriasis vulgaris severity: 0.75 µg per day orally. The procedure:
In order to treat this disease, 0.75 µg of la-hydroxyvitamin D3 was orally administered per day.
This patient had been suffering from psoriasis vulgaris for one year, during which period they were under therapy involving external use of corticosteroid. […] Thereafter, the external use of corticosteroid was suspended and only la-hydroxyvitamin D3 was kept administered perorally.
After suspending the external use of corticosteroid, peroral administration of la-hydroxyvitamin D3 in a daily dose of 1 µg was initiated.
This patient had been suffering from psoriasis vulgaris for 2 years.

For data set [2], the system named is patients. The conditions noted are these: human, in vivo, po. From the text: the six patients under therapy by oral administration of la-dihydroxyvitamin D3 and the one patient receiving orally administered la,25-dihydroxyvitamin D3 were subjected to the following analyses, tests and measurements at intervals of twice a month in the first two months of administration and once a month in the subsequent period: blood analysis for determining the number of erythrocytes, the number of platelets and the percentage of leucocytes; urine analysis for determining the levels of urinary protein, glucose, pH, acetone and urobilinogen and the presence of occult blood; testing liver functions by determining the levels of blood GOT, GPT and total bilirubin; testing kidney functions by determining the levels of blood creatinine and BUN; and the measurement of blood calcium and inorganic phosphate levels.

Data set [3] in a line: Acute toxicity test (LD50), mice. The settings on record: mouse, in vivo, 5-week-old ddY mice, Litchfield-Wilcoxon method. The procedure: (§1) Acute toxicity of la-hydroxyvitamin D3 was evaluated by its peroral and subcutaneous administration to mice and rats.
A short description of data set [4]: Acute toxicity test (LD50), rats. The conditions noted are these: rat, in vivo, 5-week-old SD-TCL rats, Litchfield-Wilcoxon method. The procedure: as §1
[5] abbreviates: patient, daily dose of 1 µg perorally, two months, external corticosteroid suspended.

As to `C=C1/C(=C\C=C2/CCC[C@]3(C)[C@@H]([C@H](C)CCCC(C)(C)O)CC[C@@H]23)C[C@@H](O)C[C@@H]1O` [la,25-dihydroxyvitamin D3], the dermal lesion condition entry in data set [1] (patient, daily dose of 0.5 µg perorally, three months, diminished rashes and flares) was “moderate improvement in the dermal lesion condition”. Besides, in data set [2], the “abnormal subjective symptom or objective sign” value is reported as “Not a single patient under therapy had any abnormal subjective symptom or objective sign”; the “change of blood, urine, liver function, kidney function, blood calcium and inorganic phosphate parameters from values prior to treatment” value is “None of the parameters analyzed showed any abnormal change”.

As for `C=C1/C(=C\C=C2/CCC[C@]3(C)[C@@H]([C@H](C)CCCC(C)C)CC[C@@H]23)C[C@@H](O)C[C@@H]1O` [la-hydroxyvitamin D3, 1α-hydroxyvitamin D3], the dermal lesion condition entry in data set [1] (patient (psoriasis for 6 years), daily dose of 1 µg perorally, three months) is reported as “moderate improvement in the dermal lesion condition”; in data set [1] (patient (psoriasis for 25 years), daily dose of 1 µg perorally, three months), “moderate improvement in the dermal lesion condition”; in data set [1] (patient, 1.0 µg per day orally, four months later, with external corticosteroid, slight loss of dermal pigment remained), “improved pronouncedly”; in data set [1] (patient, 1.0 µg per day orally, two months after start, with external corticosteroid), “a sign of improvement in the dermal lesion condition”; in data set [1] (patient, daily dose of 1 µg orally, two months after start), “diminished by a small degree”; in data set [1] (patient, daily dose of 1 µg orally, two more months later), “pronounced improvement in the condition”. Moreover, the dermal lesion condition entry in data set [1] (patient, peroral only, external corticosteroid suspended, six months later) was “completely cured”. The psoriasis vulgaris severity result is “virtually disappeared” in data set [1] (patient, a half month after the two months and a half); “dramatically diminished in severity” in data set [1] (patient, two months and a half after start). The “condition of the lesion elsewhere on the body” value in data set [1] (setting [5]) is given as “improved markedly”. For the same molecule, the “dermal lesion on the soles” value in data set [1] (setting [5]) is listed as “disappeared”. Moreover, the maintenance of improvement result in data set [1] (patient, subsequent peroral daily dose of 0.5 ug) is “improvement could be maintained”. For the same molecule, the LD50 in data set [3] (po, Peroral, female) is 0.71 mg/kg; in data set [3] (po, Peroral, male), 0.68 mg/kg; in data set [3] (sc, subcutaneous, female) it was 0.058 mg/kg; in data set [3] (sc, subcutaneous, male), 0.055 mg/kg; in data set [4] (po, Peroral, female) it was 0.743 mg/kg; in data set [4] (po, Peroral, male), 0.62 mg/kg. In addition, the LD50 in data set [4] (sc, subcutaneous, female) was 0.04 mg/kg; in data set [4] (sc, subcutaneous, male) it was 0.056 mg/kg. In addition, the “abnormal subjective symptom or objective sign” value in data set [2] is recorded as “Not a single patient under therapy had any abnormal subjective symptom or objective sign”. Also, the “change of blood, urine, liver function, kidney function, blood calcium and inorganic phosphate parameters from values prior to treatment” value in data set [2] is “None of the parameters analyzed showed any abnormal change”.
